For one series, the system named is C. hominis. Kind of series: Efficacy in neonatal gnotobiotic piglets infected with C. hominis. It counts as in vivo. The following applies: 5 mg/kg BID. On the procedure: Rectal swabs were processed for oocyst count and DNA measurement. The plot represents mean ± SEM. Wilcoxon matched-pairs signed rank test was conducted using GraphPad Prism 7.03. […] The 5 day doses were given on days 0–4, the 8 day doses were given on days 0–7.
(§1) Methods for synthesis of BKIs ([17], [23]), efficacy against Nluc expressing C. parvum in infected adult IFN-γ KO mice ([6], [9]), in vivo mouse GI tract tissue exposure by LC/MS-MS analysis ([18], [28]), PK analysis of mouse plasma and brain tissue BKI concentrations by LC/MS-MS analysis ([29]), in vivo rat and dog cardiotoxicity screen ([30]), efficacy against IOWA-II strain C. parvum in infected neonatal calves ([13]), efficacy against C. hominis in infected piglets ([12]), in vitro inhibition of C. parvum CDPK1 (CpCDPK1) and human tyrosine kinase SRC (HsSRC) activity ([31]), in vitro inhibition of hERG ([32]), Nluc expressing C. parvum in vitro growth inhibition in infected HCT-8 cells ([6]), in vitro cytotoxicity in CRL-8155 and HepG2 cells ([29]), and mouse locomotor activity box ([33], [34]) have all been previously described. Analytes were measured by LC/MS-MS on an Acquity ultra performance liquid chromatography (UPLC) system in tandem with a Xevo TQ-S mass spectrometer (Waters, Milford, MA, USA).

Series [1] is described as follows: 14-day multidose rat toxicity study. It counts as in vivo. Particulars: rats. The protocol: A control group of male and female rats were administered vehicle only for controls. […] Observations of feeding and general health were made twice daily. Clinical assessments were made at 1 h after each treatment. Blood was collected for hematology and blood chemistry before the first dose and prior to euthanasia. Necropsy and histology of organs (Liver, heart, lung, kidney, spleen, thymus, brain, spinal cord, nerves of the front and back legs, including muscle, bone marrow femur, stomach, small and large intestine, including lymph nodes, and femur and sternum, including epiphyseal plates, distal hind limb, and thyroid gland) were performed after euthanasia.

Series [2] can be described thus: Metabolite identification in hepatocytes. It counts as in vitro ADME, mice, rats, dogs, monkeys, and humans. The following applies: all tested species, product 1770-O-glucuronide. On the procedure: BKI-1841 was also evaluated in these assays (Table 1). All results from these assays were favorable, including falling within the solubility range that correlated with efficacy for the AC scaffold ([17]).

Series [3] concerns the target T1, C. parvum calcium dependent protein kinase 1 (CpCDPK1) (Cryptosporidium parvum, UniProt A3FQ16).
T1 sequence (A3FQ16 1-538): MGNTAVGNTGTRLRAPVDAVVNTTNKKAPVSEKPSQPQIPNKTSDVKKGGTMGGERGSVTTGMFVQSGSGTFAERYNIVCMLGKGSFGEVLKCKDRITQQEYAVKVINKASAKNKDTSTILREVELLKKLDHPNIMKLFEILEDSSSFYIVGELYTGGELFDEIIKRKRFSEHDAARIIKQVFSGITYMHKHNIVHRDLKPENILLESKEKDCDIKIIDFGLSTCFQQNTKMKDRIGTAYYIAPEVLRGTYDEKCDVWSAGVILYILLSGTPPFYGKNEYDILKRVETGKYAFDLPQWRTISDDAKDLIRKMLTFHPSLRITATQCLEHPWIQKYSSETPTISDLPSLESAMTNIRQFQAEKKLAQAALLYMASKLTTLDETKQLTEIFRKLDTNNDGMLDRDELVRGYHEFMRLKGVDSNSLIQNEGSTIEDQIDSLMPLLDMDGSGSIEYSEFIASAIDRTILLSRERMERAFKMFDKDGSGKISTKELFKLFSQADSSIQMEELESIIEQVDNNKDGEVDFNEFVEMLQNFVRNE
Also on record: method as in PMID 30830766. Particulars: read-out: CpCDPK1 IC50; cited from earlier work.

A further series relates to HepG2 cells. More on the design: method as in PMID 30830766. The following applies: cited from earlier work.
The next series deals with CRL-8155 cells. Also on record: method as in PMID 30830766. Particulars: cited from earlier work.
In series [4] the test system is Nluc expressing C. parvum. More on the design: method as in PMID 30830766. The following applies: IFN-γ KO mice, twice daily (BID) for 5 days; cited from earlier work.
For series [5] the following is noted: cited from earlier work; for HR / MAP / dP/dt@50: rat.
For series [6], the target named is T1, C. parvum calcium dependent protein kinase 1 (CpCDPK1). Kind of series: In vitro inhibition of CpCDPK1. It counts as biochemical.
Excerpt: as §1

For series [7], the system named is Nluc expressing C. parvum. The experiment in a line: Nluc expressing C. parvum in vitro growth inhibition in infected HCT-8 cells. It counts as cell-based. Particulars: Cryptosporidium parvum.
Excerpt: as §1

The target of series [8] is human tyrosine kinase SRC (HsSRC) (Homo sapiens, UniProt P12931). Kind of series: In vitro inhibition of HsSRC. It counts as biochemical. The following applies: read-out: HsSR IC50.
human tyrosine kinase SRC (HsSRC), sequence (P12931 whole entry): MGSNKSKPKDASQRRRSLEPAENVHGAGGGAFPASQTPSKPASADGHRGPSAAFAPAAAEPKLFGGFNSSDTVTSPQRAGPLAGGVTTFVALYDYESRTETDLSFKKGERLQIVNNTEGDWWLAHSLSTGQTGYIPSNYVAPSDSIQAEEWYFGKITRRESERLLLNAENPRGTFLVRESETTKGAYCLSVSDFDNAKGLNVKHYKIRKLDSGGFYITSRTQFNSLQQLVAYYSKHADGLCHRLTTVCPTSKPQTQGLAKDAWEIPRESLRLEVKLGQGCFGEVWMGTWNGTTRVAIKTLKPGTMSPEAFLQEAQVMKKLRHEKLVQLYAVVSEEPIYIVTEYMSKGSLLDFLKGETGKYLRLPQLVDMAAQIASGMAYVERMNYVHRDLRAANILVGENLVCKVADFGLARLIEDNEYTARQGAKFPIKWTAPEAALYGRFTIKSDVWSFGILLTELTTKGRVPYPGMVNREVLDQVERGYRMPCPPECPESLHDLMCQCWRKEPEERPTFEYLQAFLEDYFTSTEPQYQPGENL
Excerpt: as §1

A further series in a line: Aqueous solubility. It counts as physicochemical. An excerpt: TABLE 1 In vitro properties of bumped kinase inhibitors^a | column: Solubility at pH 2 (μM); Solubility at pH 6.5 (μM)
In series [9] the test system is Nluc expressing C. parvum. Kind of series: Efficacy in IFN-γ KO mice infected with Nluc expressing C. parvum. It counts as in vivo. Particulars: for difference in parasite excretion vs untreated control: n = 3. The protocol:
BKI-1841 was also tested at doses of 60, 30, 15, and 5 mg/kg once daily (QD) for 5 days, resulting in a minimum efficacious dose of 30 mg/kg that cleared parasite excretion to background levels by day 13 postinfection (Fig. 4).
FIG 4 Efficacy of BKI-1841 in interferon-γ knockout mice infected with nanoluciferase expressing C. parvum. Treatments were separated into two separate experiments for BKI-1841. Untreated control groups for each experiment are grouped with their associated treatment in the figure keys. Dotted line denotes the limit of detection. Treatments were dosed on days 6 through 10 postinfection. […] QD = once daily.
as §1

SMILES strings stand for the structures. Where two headings read alike, the source gives them in different places.

For the molecule `CCOc1ccc2cc(-c3nn(C(C)(C)CCO)c(N)c3C(N)=O)ccc2c1` [BKI-1770], the “oocyst counts in feces vs controls” value with C. hominis (5-day treatment (P = 0.001)) and in the series on C. hominis (8-day treatment (P = 0.0168)) was “significantly reduced” each time. Further, the diarrhea scores entry in the series on C. hominis (both 5- and 8-day treatment groups) was “significantly reduced”. Also, the plasma concentration in series [1] (15 mg/kg group) stood at 2.4 µM; in series [1] (375 mg/kg group), 11.8 µM. Also, the toxicity findings result in [1] (oral 15 mg/kg QD, 14 days) was “no signs of toxicity”; in [1] (oral 75 mg/kg QD, 14 days), “some signs of bone toxicity, including thickened epiphyseal plates and increased spongiosa”; in series [1] (oral 375 mg/kg QD) it was “euthanized after 7 doses due to extreme signs of toxicity”. Besides, the “main mechanism of metabolism” value in series [2] is “glucuronylation”. Further, the IC50 in [3] is 2 nM. Besides, the half-maximal cytotoxic concentration (CC50) with HepG2 cells and with CRL-8155 cells was > 80000 nM in each case. Further, the minimum efficacious dose in [4] was 30 mg/kg. Moreover, in [5] (anesthetized rats, 30-minute IV infusions of 3, 10, 30 mg/kg, significant >15%), the “effects on MAP, HR, left ventricular contractility vs vehicle” value is given as “No significant effects”. In addition, the HR in series [5] (IV 3 mg/kg) is given as 8%; in series [5] (IV 10 mg/kg), 8%; in [5] (IV 30 mg/kg), 3%. Further, the MAP in [5] (IV 3 mg/kg) is listed as -7%; in [5] (IV 10 mg/kg) it was 5%; in [5] (IV 30 mg/kg), -7%. Moreover, the “dP/dt@50” value in series [5] (IV 3 mg/kg) is recorded as 0%; in [5] (IV 10 mg/kg), 9%; in series [5] (IV 30 mg/kg) it was 8%. Further, the signs of cardiotoxicity entry in series [5] (rats) was “no signs of cardiotoxicity”.
Turning to `CCOc1ccc2cc(-c3nn(C4CCOCC4)c(N)c3C(N)=O)ccc2n1` [BKI-1841], the IC50 in series [6] was 3 nM; in [8], > 10000 nM. This molecule also registered a concentration for a half-maximal effect (EC50) in series [7] of 700 nM. Besides, the solubility in “Aqueous solubility” (aqueous medium at pH 2, pH 2, simulated gastric fluid, read-out: Solubility at pH 2) was > 100 µM; in “Aqueous solubility” (aqueous medium at pH 6.5, pH 6.5, aqueous buffer, read-out: Solubility at pH 6.5), > 100 µM. For the same molecule, the “difference in parasite excretion vs untreated control” value is on record as “no significant difference” in series [9] (5 mg/kg QD days 6-10 postinfection), “no significant difference” in series [9] (15 mg/kg QD days 6-10 postinfection), “Significant differences” in series [9] (30 mg/kg QD days 6-10 postinfection) and “Significant differences” in [9] (60 mg/kg QD days 6-10 postinfection). The molecule also had a minimum efficacious dose in [9] (IFN-γ KO mice, once daily (QD) for 5 days, cleared parasite excretion to background by day 13 postinfection) of 30 mg/kg.

The values above are taken from PMC10112232, “Comparison of Toxicities among Different Bumped Kinase Inhibitor Analogs for Treatment of Cryptosporidiosis” (Antimicrobial Agents and Chemotherapy, 2023).
